Test results: US20070202492A1, “Viral Assay” (University Of Warwick, priority 2004, published 2007)
In brackets after ≈: the same amount, converted by molar mass.

Assays:
APV-luciferase = format: cell-based, avian pneumovirus (APV)
BS-C-1 cells = test: Cell viability, MTT assay; format: cell-based
Source text: For the negative control, cells were killed with 1% w/v SDS.

RSV [1] = test: Reduction in plaque number on BS-C-1 cells; format: cell-based, human respiratory syncytial virus (RSV); conditions: RSV on BS-C-1 cells; 30 μg/ml drug
RSV [2] = conditions: HeLa cells, Kawana 1987, Watanabe 1994; cited from earlier work
RSV [3] = test: microbe, parasite or virus in culture; format: cell-based, human respiratory syncytial virus (RSV)
APV = test: microbe, parasite or virus in culture; format: cell-based, avian pneumovirus (APV)

SMILES	Antiviral activity against APV (luciferase reporter) (APV-luciferase; 100 ng/ml, FIG. 3C)	Toxicity to the cells (BS-C-1 cells; 100 ng/ml, FIG. 3D)	Reduction in titre (plaque number) (RSV [1]) [fold]	Inhibition of APV (luciferase reporter) (APV-luciferase; higher concentrations of ribavirin, FIG. 3A)	Toxicity to the cells (BS-C-1 cells; concentrations used in the experiment, FIG. 3B)	EC50, published values (RSV [2]) [µg/mL]	CAT expression (RSV [3]; RSV, 50 μg/ml, FIG. 1)	Effect on CAT expression (RSV [3]; RSV, lowest concentration tested, 10 μg/ml, FIG. 1)	EC50 (RSV [3]; human respiratory syncytial virus, BSC-1, read-out: EC50 (50% effective concentration)) [µg/mL]	EC90 (RSV [3]; human respiratory syncytial virus, BSC-1, read-out: EC90 (90% effective concentration)) [µg/mL]	Effect on CAT expression (APV; APV, lowest concentration tested, 10 μg/ml, FIG. 1)	EC50 (APV; avian metapneumovirus, BSC-1, read-out: EC50 (50% effective concentration)) [µg/mL]	EC90 (APV; avian metapneumovirus, BSC-1, read-out: EC90 (90% effective concentration)) [µg/mL]
COc1c(C)c2c(c(O)c1C/C=C(\C)CCC(=O)O)C(=O)OC2 [MPA, mycophenolic acid]	has antiviral activity	not toxic											
NC(=O)c1ncn([C@@H]2O[C@H](CO)[C@@H](O)[C@H]2O)n1 [ribavirin]			100	strongly inhibited	not toxic	3.1 to 6.2	undetectable	obvious inhibitory effect	4.2 (≈ 17.2 µM)	17.1 (≈ 70 µM)	obvious inhibitory effect	9 (≈ 36.9 µM)	25.4 (≈ 104 µM)
